Measurements reported in patent publication US8779156B2, “Analogues for the treatment or prevention of flavivirus infections” (Vertex Pharmaceuticals Incorporated, priority 2010, dated 2014).

Test system: HCV (1b) replicon, Huh-ET cells
Test: Cell-based luciferase reporter HCV (1b) RNA replication assay
Conditions: Hepatitis C virus, 96 h; HCV 1b replicon, luciferase, 4 days incubation; read-out: EC50_1b
Description: Cell-Based Luciferase Reporter HCV (Ib) RNA Replication Assay Cell Culture
Replicon cell lines Huh-5.2 are derived from the Huh-7 hepatocarcinoma cell line are maintained in culture as generally described in Krieger, N; Lohmann, V; Bartenschlager, R. Enhancement of hepatitis C virus RNA replication by cell culture-adaptive mutations. J. Virol. 2001, 75, 4614-4624. The Huh-5.2 cells contain the highly cell culture-adapted replicon I389luc-ubi-neo/NS3-375.1 construct that carries, in addition to the neomycin gene, an integrated copy to the firefly luciferase gene (Krieger, N; Lohmann, V; Bartenschlager, R. Enhancement of hepatitis C virus RNA replication by cell culture-adaptive mutations. J. Virol. 2001, 75, 4614-4624). This cell line allows measurement of HCV RNA replication and translation by measuring luciferase activity. It has been previously shown that the luciferase activity tightly follows the replicon RNA level in these cells (Krieger, N; Lohmann, V; Bartenschlager, R. Enhancement of hepatitis C virus RNA replication by cell culture-adaptive mutations. J. Virol. 2001, 75, 4614-4624). The Huh-ET cell line has the same features as those mentioned for Huh-5.2 cell line, except that ET cells are more robust and contain an adaptative mutation in the HCV NS4B gene instead of NS5A. Both cell lines are maintained in cultures at a sub-confluent level (<85%) as the level of replicon RNA is highest in actively proliferating cells. The culture media used for cell passaging consist of DMEM (Gibco BRL Laboratories, Mississauga, ON, Canada) supplemented with 10% foetal bovine serum with 1% penicilin/streptomycin, 1% glutamine, 1% sodium pyruvate, 1% non-essential amino acids, and 180 μg/ml of G418 final concentration. Cells are incubated at 37° C., in an atmosphere of 5% CO2 and passaged twice a week to maintain sub-confluence.
Approximately 3000 viable Huh-ET cells (100 μl) are plated per well in a white opaque 96-well microtiter plate. The cell culture media used for the assay is the same as described above except that it contains no G418 and no phenol red. After an incubation period of 3-4 hours at 37° C. in a 5% CO2 incubator, compounds (100 μl) are added at various concentrations. Cells are then further incubated for 4 days at 37° C. in a 5% CO2 incubator. Thereafter, the culture media is removed and cells are lysed by the addition of 95 μL of the luciferase buffer (luciferin substrate in buffered detergent). Cell lysates are incubated at room temperature and protected from direct light for at least 10 minutes. Plates are read for luciferase counts using a luminometer (Wallac MicroBeta Trilux, Perkin Elmer™, MA, USA).
Curves are fitted to data points using nonlinear regression analysis, and IC50s are interpolated from the resulting curve using GraphPad Prism software, version 2.0 (GraphPad Software Inc., San Diego, Calif., USA).

## COC(=O)N[C@H](C(=O)N1C[C@@H](C)C[C@H]1c1ncc(-c2ccc(-c3cc4sc(-c5ccc6nc([C@@H]7C[C@H](C)CN7C(=O)[C@@H](NC(=O)OC)C(C)C)[nH]c6c5)cc4s3)cc2)[nH]1)C(C)C [Compound 25]
  EC50: ≤ 5 nM

## COC(=O)N[C@H](C(=O)N1C[C@@H](C)C[C@H]1c1nc(-c2ccc(-c3ccc4nc([C@@H]5C[C@H](C)CN5C(=O)[C@@H](NC(=O)OC)C(C)C)[nH]c4c3)cc2)c(-c2cc3sccc3s2)[nH]1)C(C)C [Compound 26]
  EC50: ≤ 5 nM

## COC(=O)N[C@H](C(=O)N1C[C@@H](C)C[C@H]1c1nc(-c2ccc(-c3ccc(-c4ccc5[nH]c([C@@H]6C[C@H](C)CN6C(=O)[C@@H](NC(=O)OC)C(C)C)nc5c4)s3)cc2)c[nH]1)C(C)C [Compound 27]
  EC50: ≤ 5 nM

## COC(=O)N[C@H](C(=O)N1C[C@@H](C)C[C@H]1c1nc(-c2ccc(-c3ccc(-c4cc(C)c5[nH]c([C@@H]6C[C@H](C)CN6C(=O)[C@@H](NC(=O)OC)C(C)C)nc5c4)cc3)cc2)c[nH]1)C(C)C [Compound 28]
  EC50: ≤ 5 nM

## COC(=O)N[C@H](C(=O)N1C[C@@H](C)CC1c1nc2cc(C#Cc3ccc(C#Cc4cnc([C@@H]5C[C@H](C)CN5C(=O)[C@@H](NC(=O)OC)C(C)C)[nH]4)cc3)ccc2[nH]1)C(C)C (some centres unmarked) [Compound 29]
  EC50: ≤ 5 nM

## COC(=O)N[C@H](C(=O)N1C[C@@H](C)C[C@H]1c1nc(-c2ccc(-c3ccc(-c4ccc5[nH]c([C@@H]6C[C@H](C)CN6C(=O)[C@@H](NC(=O)OC)C(C)C)nc5c4)c4c3OCO4)cc2)c[nH]1)C(C)C [Compound 30]
  EC50: ≤ 5 nM

## COC(=O)N[C@H](C(=O)N1C[C@@H](C)C[C@H]1c1ncc(-c2ccc(-c3ccc(-c4ccc5[nH]c([C@@H]6C[C@H](C)CN6C(=O)[C@@H](NC(=O)OC)C(C)C)nc5c4)c(C)c3)cc2C)[nH]1)C(C)C [Compound 31]
  EC50: ≤ 5 nM

## COC(=O)N[C@H](C(=O)N1C[C@@H](C)C[C@H]1c1nc(-c2ccc(-c3ccc(-c4cc(F)c5[nH]c([C@@H]6C[C@H](C)CN6C(=O)[C@@H](NC(=O)OC)C(C)C)nc5c4)cc3)cc2)c[nH]1)C(C)C [Compound 32]
  EC50: ≤ 5 nM

## COC(=O)N[C@H](C(=O)N1C[C@@H](C)C[C@H]1c1nc(-c2ccc3sc(-c4ccc5[nH]c([C@@H]6C[C@H](C)CN6C(=O)[C@@H](NC(=O)OC)C(C)C)nc5c4)cc3c2)c[nH]1)C(C)C [Compound 33]
  EC50: ≤ 5 nM

## COC(=O)N[C@H](C(=O)N1C[C@@H](C)C[C@H]1c1nc(-c2ccc3nc(-c4ccc5[nH]c([C@@H]6C[C@H](C)CN6C(=O)[C@@H](NC(=O)OC)C(C)C)nc5c4)ccc3c2)c[nH]1)C(C)C [Compound 34]
  EC50: ≤ 5 nM

## COC(=O)N[C@H](C(=O)N1C[C@@H](C)C[C@H]1c1nc(-c2ccc(-c3ccc(-c4cc5nc([C@@H]6C[C@H](C)CN6C(=O)[C@@H](NC(=O)OC)C(C)C)[nH]c5cc4C)cc3)cc2)c[nH]1)C(C)C [Compound 35]
  EC50: ≤ 5 nM

## COC(=O)N[C@H](C(=O)N1C[C@@H](C)C[C@H]1c1nc(-c2ccc(-c3ccc(-c4ccc5[nH]c([C@@H]6C[C@H](C)CN6C(=O)[C@@H](NC(=O)OC)C(C)C)nc5c4)cc3F)cc2)c[nH]1)C(C)C [Compound 39]
  EC50: ≤ 5 nM

## COC(=O)N[C@H](C(=O)N1C[C@@H](C)C[C@H]1c1nc(-c2cc3sc(-c4ccc5[nH]c([C@@H]6C[C@H](C)CN6C(=O)[C@H](C(C)C)N6CCOC6=O)nc5c4)cc3s2)c[nH]1)C(C)C [Compound 40]
  EC50: ≤ 5 nM

## COC(=O)N[C@H](C(=O)N1C[C@@H](C)C[C@H]1c1nc(-c2ccc3cc(-c4ccc5[nH]c([C@@H]6C[C@H](C)CN6C(=O)[C@@H](NC(=O)OC)C(C)C)nc5c4)sc3c2)c[nH]1)C(C)C [Compound 41]
  EC50: ≤ 5 nM

## COC(=O)N[C@H](C(=O)N1C[C@@H](C)CC1c1nc2cc(-c3ccc4nc(-c5c[nH]c([C@@H]6C[C@H](C)CN6C(=O)[C@@H](NC(=O)OC)C(C)C)n5)cn4c3)ccc2[nH]1)C(C)C (some centres unmarked) [Compound 42]
  EC50: 5 to 5000 nM

## COC(=O)N[C@H](C(=O)N1C[C@@H](C)C[C@H]1c1nc(-c2cc3cc(-c4ccc5[nH]c([C@@H]6C[C@H](C)CN6C(=O)[C@@H](NC(=O)OC)C(C)C)nc5c4)sc3s2)c[nH]1)C(C)C [Compound 43]
  EC50: ≤ 5 nM

## COC(=O)N[C@H](C(=O)N1C[C@@H](C)C[C@H]1c1nc(C#Cc2cc3sc(-c4ccc5[nH]c([C@@H]6C[C@H](C)CN6C(=O)[C@@H](NC(=O)OC)C(C)C)nc5c4)cc3s2)c[nH]1)C(C)C [Compound 44]
  EC50: ≤ 5 nM

## COC(=O)NC(C(=O)N1C[C@@H](C)C[C@H]1c1nc2cc(C#Cc3cc4sc(-c5c[nH]c([C@@H]6C[C@H](C)CN6C(=O)[C@@H](NC(=O)OC)C(C)C)n5)cc4s3)ccc2[nH]1)C(C)C (some centres unmarked) [Compound 45]
  EC50: ≤ 5 nM

## COC(=O)N[C@H](C(=O)N1C[C@H](C)C[C@H]1c1nc(-c2ccc(-c3ccc(-c4ccc5[nH]c([C@@H]6C[C@H](C)CN6C(=O)[C@@H](NC(=O)OC)C(C)C)nc5c4)cc3)cc2)c[nH]1)C(C)C [Compound 47]
  EC50: ≤ 5 nM

## COC(=O)N[C@H](C(=O)N1C[C@@H](C)C[C@H]1c1nc2cc(-c3ccc(-c4ccc(-c5c[nH]c([C@@H]6C[C@H](C)CN6)n5)cc4)cc3)ccc2[nH]1)C(C)C [Compound 51]
  EC50: ≤ 5 nM

## [2H]c1c([2H])c(-c2ccc3[nH]c([C@@H]4C[C@H](C)CN4C(=O)[C@@H](NC(=O)OC)C(C)C)nc3c2)c([2H])c([2H])c1-c1ccc(-c2c[nH]c([C@@H]3C[C@H](C)CN3C(=O)[C@@H](NC(=O)OC)C(C)C)n2)cc1 [Compound 52]
  EC50: ≤ 5 nM

## COC(=O)N[C@H](C(=O)N[C@H](C(=O)N1C[C@@H](C)C[C@H]1c1nc(-c2ccc(-c3ccc(-c4ccc5[nH]c([C@@H]6C[C@H](C)CN6C(=O)[C@@H](NC(=O)OC)C(C)C)nc5c4)cc3)cc2)c[nH]1)C(C)C)C(C)C [Compound 55]
  EC50: ≤ 5 nM

## COC(=O)N[C@H](C(=O)N[C@H](C(=O)N1C[C@@H](C)C[C@H]1c1nc2cc(-c3ccc(-c4ccc(-c5c[nH]c([C@@H]6C[C@H](C)CN6C(=O)[C@@H](NC(=O)OC)C(C)C)n5)cc4)cc3)ccc2[nH]1)C(C)C)C(C)C [Compound 56]
  EC50: ≤ 5 nM
